# Data taken from article PMC10584882 (Communications Biology, 2023).
# “And” between values parts separate entries of the source, which are not always exact repeats. Equal entries are not always repeated.
# Experiments:
# LC-HK2 cells = assay: Fluorescence microscopy, S-protein vesicle size in infected LC-HK2 cells; format: cell-based, human; conditions: 1.5 µM, versus control
# Protocol: LC-HK2 was cultivated on coverslips (13 mm diameter) to approximately 80% confluence. The cells were pre-treated for 2 h with 1.5 µM of S-Calpeptin diluted in DMEM supplemented with 2.5% FBS. The compounds were removed, and SARS-CoV-2 strain diluted in DMEM supplemented with 2.5% FBS was added to LC-HK2 cells at M.O.I of 0.05, allowing absorption for 1 h. The viral inoculum was removed, and cells were gently washed with PBS without calcium and magnesium. The cells were incubated in the continued presence of 1.5 µM of S-Calpeptin diluted in DMEM supplemented with 2.5% FBS and were examined by fluorescence microscopy at the time points 32, 40, 48, 56, 64 and 72 h post-infection.
# For this purpose, the cells were fixed and permeabilized with 3.7% formaldehyde solution (Sigma-Aldrich, F1635) containing 0.2% Triton X-100 in PBS 1×. […] The images were captured using fluorescence range intensity adjusted identically within each experimental series.
# Vesicles size quantifications were obtained from 2D maximum projections of Z stacks exported as grayscale TIFs (16-bit depth) using Automated Image Analysis in Zen 2.6 blue software (ZEISS). […]
# In the Fluorescence microscopy evaluation, the P-values were generated by unpaired t-test using GraphPad Prism version 8.00 (La Jolla, CA, USA, www.graphpad.com). […]
# SARS-CoV-2 [1] = assay: Viral loading determination via RT-qPCR in VERO-CCL81 cells; format: cell-based; conditions: for Viral titer (% control): VERO CCL81, RT-qPCR, experiments 1 and 2
# SARS-CoV-2-GFP = tested on: SARS-CoV-2-GFP; parameters: method as in PMID 33811162; conditions: VERO E6 cell-based SARS-CoV-2 infection assays; cited from earlier work
# SARS-CoV-2 [2] = assay: Cytopathic effect inhibition assay in VERO-CCL81 cells; format: cell-based; conditions: for CPE inhibition (%): VERO CCL81
compound,measurement,setting,value
"CCCC[C@@H](C=O)NC(=O)[C@H](CC(C)C)NC(=O)OCc1ccccc1 [Calpeptin, reference compound]",impact on vesicle morphology / S-protein vesicle size,LC-HK2 cells,no substantial impact on vesicle morphology
same,EC50,"SARS-CoV-2 [1]; Severe acute respiratory syndrome coronavirus 2, VERO-CCL81, RT-qPCR, 48 h post-infection, read-out: Viral titer EC50",0.99 µM
same,Viral titer (% control),SARS-CoV-2 [1]; 0.0781 μM,100 % control
same,Viral titer (% control),SARS-CoV-2 [1]; 0.1563 μM,100 % control
same,Viral titer (% control),SARS-CoV-2 [1]; 0.3125 μM,100 % control and 79.17 % control
same,Viral titer (% control),SARS-CoV-2 [1]; 0.625 μM,59.82 % control and 89.92 % control
same,Viral titer (% control),SARS-CoV-2 [1]; 1.25 μM,52.69 % control and 49.08 % control
same,Viral titer (% control),SARS-CoV-2 [1]; 2.5 μM,27.29 % control and 39.96 % control
same,Viral titer (% control),SARS-CoV-2 [1]; 5 μM,41.34 % control and 28.43 % control
same,Viral titer (% control),SARS-CoV-2 [1]; 10 μM,15.97 % control and 10.75 % control
same,concentration giving high suppression of virus replication,SARS-CoV-2-GFP,below 100 nM
same,inhibition at 0.3125 µM,"SARS-CoV-2 [2]; Severe acute respiratory syndrome coronavirus 2, VERO CCL81, 0.3125 μM, two experiments, read-out: CPE inhibition (%)",26.9%
same,inhibition at 0.625 µM,"SARS-CoV-2 [2]; Severe acute respiratory syndrome coronavirus 2, VERO CCL81, 0.625 μM, two experiments, read-out: CPE inhibition (%)",31.8%
same,inhibition at 1.25 µM,"SARS-CoV-2 [2]; Severe acute respiratory syndrome coronavirus 2, VERO CCL81, 1.25 μM, two experiments, read-out: CPE inhibition (%)",41.2%
same,inhibition at 2.5 µM,"SARS-CoV-2 [2]; Severe acute respiratory syndrome coronavirus 2, VERO CCL81, 2.5 μM, two experiments, read-out: CPE inhibition (%)",49.3%
same,inhibition at 5 µM,"SARS-CoV-2 [2]; Severe acute respiratory syndrome coronavirus 2, VERO CCL81, 5 μM, two experiments, read-out: CPE inhibition (%)",61.9%
same,inhibition at 10 µM,"SARS-CoV-2 [2]; Severe acute respiratory syndrome coronavirus 2, VERO CCL81, 10 μM, two experiments, read-out: CPE inhibition (%)",64.6%
same,EC50,"SARS-CoV-2 [2]; Severe acute respiratory syndrome coronavirus 2, VERO-CCL81, CellTiter-Glo, 48 h post-infection, read-out: CPE inhibition EC50",0.4 µM
same,CPE inhibition (%),"SARS-CoV-2 [2]; 0.1563 μM, two experiments",12.75% and 5.21%
same,CPE inhibition (%),"SARS-CoV-2 [2]; 0.3125 μM, two experiments",21.14%
same,CPE inhibition (%),"SARS-CoV-2 [2]; 0.625 μM, two experiments",29.81%
same,CPE inhibition (%),"SARS-CoV-2 [2]; 1.25 μM, two experiments",49.13%
same,CPE inhibition (%),"SARS-CoV-2 [2]; 2.5 μM, two experiments",33.89%
same,CPE inhibition (%),"SARS-CoV-2 [2]; 5 μM, two experiments",61.52%
same,CPE inhibition (%),"SARS-CoV-2 [2]; 10 μM, two experiments",53.9%
